Laboratory results as given in PubChem BioAssay AID1794811.

Target: High affinity choline transporter 1 (Homo sapiens) (UniProt Q9GZV3)
Test: PubChem AID 1794811
Conditions: HEK-293 JumpIN-SLC5A7, FLIPR membrane potential dye

High affinity choline transporter 1 (Homo sapiens), sequence (Q9GZV3 whole entry, looked up): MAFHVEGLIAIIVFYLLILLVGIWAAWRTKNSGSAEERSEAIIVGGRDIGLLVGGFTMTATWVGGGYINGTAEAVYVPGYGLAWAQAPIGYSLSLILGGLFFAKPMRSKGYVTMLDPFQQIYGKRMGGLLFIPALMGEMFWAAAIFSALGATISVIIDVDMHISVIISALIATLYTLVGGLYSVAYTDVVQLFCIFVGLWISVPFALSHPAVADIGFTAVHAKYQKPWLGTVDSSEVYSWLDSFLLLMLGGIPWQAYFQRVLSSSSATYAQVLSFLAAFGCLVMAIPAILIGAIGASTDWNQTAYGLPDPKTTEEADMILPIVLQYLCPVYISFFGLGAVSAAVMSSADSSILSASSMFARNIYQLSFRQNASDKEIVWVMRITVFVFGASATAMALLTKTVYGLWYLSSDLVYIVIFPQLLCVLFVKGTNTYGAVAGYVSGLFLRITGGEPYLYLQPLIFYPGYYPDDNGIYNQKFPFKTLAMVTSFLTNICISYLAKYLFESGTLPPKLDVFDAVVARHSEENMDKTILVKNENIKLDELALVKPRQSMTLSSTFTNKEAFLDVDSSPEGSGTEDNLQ

EC50: 17 µM
Compound: C[N+](C)(C)CCO
